For data set [1], the system named is HeLa human cervical tumour cells. The data set can be described thus: Proliferation assay (crystal violet), HeLa. The format is cell-based. Particulars: Method 3, read-out: Inhibition of HeLa cell proliferation, IC50. The method, boiled down:
(§1)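 Cells were seeded at 3000/well (NCI-H460, HeLa), 5000/well (HeLa-MaTu-ADR) or 1500/well (Caco-2) in medium with 10% FCS. After 24 h, compounds ([…], 0.5% DMSO) were added for 4 days. Crystal violet absorbance at 595 nm was normalized to a zero-point plate and untreated cells; IC50 came from a 4-parameter fit.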

Data set [2] in a line: Equilibrium shake flask solubility assay. The format is physicochemical. Particulars: pH 6.5, equilibrium shake flask method; for solubility thermodynamic at 24 h: phosphate buffer, pH 6.5, aqueous buffer, thermodynamic from solid, water. The procedure: 4. Equilibrium Shake Flask Solubility Assay:
The thermodynamic solubility of compounds in water was determined by an equilibrium shake flask method (see for example: E. H. Kerns, L. Di: Drug-like Properties: Concepts, Structure Design and Methods, 276-286, Burlington, Mass., Academic Press, 2008). A saturated solution of the drug was prepared and the solution was mixed for 24 h to ensure that equilibrium was reached. The solution was centrifuged to remove the insoluble fraction and the concentration of the compound in solution was determined using a standard calibration curve.
To prepare the sample, 2 mg solid compound was weighed in a 4 mL glass vial. 1 mL phosphate buffer pH 6.5 was added. The suspension was stirred for 24 hrs at room temperature. The solution was centrifuged afterwards. To prepare the sample for the standard calibration, 2 mg solid sample was dissolved in 30 mL acetonitrile. After sonification the solution was diluted with water to 50 mL. Sample and standards were quantified by HPLC with UV-detection. For each sample two injection volumes (5 and 50 μl) in triplicates were made. Three injection volumes (5 μl, 10 μl and 20 μl) were made for the standard.
Chromatographic Conditions:
The areas of sample- and standard injections as well as the calculation of the solubility value (in mg/l) were determined by using HPLC software (Waters Empower 2 FR).

Another data set concerns the target CDK9/CycT1 (Homo sapiens (Human), UniProt P50750). As to the kind of experiment: CDK9/CycT1 kinase assay (TR-FRET). Type of data set: biochemical. Particulars: Method 1. The essentials: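 Recombinant full-length His-tagged human CDK9/CycT1, insect-cell expressed and Ni-NTA purified. Substrate is a biotinylated peptide (biotin-Ttds-linked). Kinase inhibition is read out by TR-FRET.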
(TR-FRET usually uses a lanthanide donor and a delayed reading to cut background.)

For a further data set, the target named is CDK2/CycE (Homo sapiens (Human), UniProt P24941). The data set can be described thus: CDK2/CycE kinase assay (TR-FRET). Particulars: Method 2. The format is biochemical. The essentials: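 Enzyme was GST-tagged human CDK2 with GST-tagged human CycE, expressed in Sf9 insect cells and glutathione-affinity purified. The kinase reaction used a biotinylated peptide substrate, with inhibition measured by TR-FRET.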

Data set [3] has as its system DU145, hormone-independent human prostate carcinoma cells. The data set can be described thus: Proliferation assay (crystal violet), DU145. The format is cell-based. The conditions noted are these: Method 3, read-out: Inhibition of DU145 cell proliferation, IC50. The essentials:
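DU145 hormone-independent human prostate carcinoma cells (ATCC HTB-81) were seeded at 5000 cells/well in 96-well plates in 200 μL growth medium with 10% fetal calf serum. After 24 hours, a zero-point plate was stained. The other plates got fresh medium containing test substances ([…], 0.5% dimethylsulfoxide) and were incubated for 4 days.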

For data set [4], the system named is NCI-H460, human non-small cell lung carcinoma cells. As to the kind of experiment: Proliferation assay (crystal violet), NCI-H460. Type of data set: cell-based. Particulars: Method 3, read-out: Inhibition of NCI-H460 cell proliferation, IC50. The essentials: as §1
For data set [5], the system named is Caco-2 human colorectal carcinoma. The data set can be described thus: Proliferation assay (crystal violet), Caco-2. The format is cell-based. Particulars: Method 3, read-out: Inhibition of Caco-2 cell proliferation, IC50. The method, boiled down: as §1
In data set [6] the test system is B16F10 mouse melanoma cells. As to the kind of experiment: Proliferation assay (crystal violet), B16F10. The format is cell-based. Particulars: Method 3, read-out: Inhibition of B16F10 cell proliferation, IC50. The method, boiled down:
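B16F10 mouse melanoma cells (ATCC CRL-6475) were seeded at 1000 cells/well into 96-well plates in 200 μL growth medium containing 10% fetal calf serum. After 24 hours, one zero-point plate was stained with crystal violet. The remaining plates got fresh medium with test substances (0 M and […], 0.5% dimethylsulfoxide) and were incubated for 4 days.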

The test system of data set [7] is HeLa-MaTu-ADR, multidrug-resistant human cervical carcinoma cells. As to the kind of experiment: Proliferation assay (crystal violet), HeLa-MaTu-ADR. The conditions noted are these: Method 3, read-out: Inhibition of HeLa/MaTu/ADR cell proliferation, IC50. Type of data set: cell-based. The method, boiled down:
as §1

pIC50: −log10 of the molar value. In brackets after ≈: the same amount, converted by molar mass. Like-named read-outs stand apart in the source and are kept apart here.

Chain of CDK9/CycT1 (P50750 whole entry): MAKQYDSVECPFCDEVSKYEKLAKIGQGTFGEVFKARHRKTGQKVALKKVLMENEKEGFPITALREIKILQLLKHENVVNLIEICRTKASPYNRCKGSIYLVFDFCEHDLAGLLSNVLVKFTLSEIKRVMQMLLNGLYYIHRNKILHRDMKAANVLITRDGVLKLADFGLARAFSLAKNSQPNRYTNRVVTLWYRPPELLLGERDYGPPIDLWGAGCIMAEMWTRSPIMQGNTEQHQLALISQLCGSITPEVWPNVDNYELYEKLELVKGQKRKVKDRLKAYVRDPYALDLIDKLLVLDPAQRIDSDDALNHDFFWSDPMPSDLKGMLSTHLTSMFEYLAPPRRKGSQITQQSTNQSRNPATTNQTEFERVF
Chain of CDK9/CycT1 (O60563 whole entry partner): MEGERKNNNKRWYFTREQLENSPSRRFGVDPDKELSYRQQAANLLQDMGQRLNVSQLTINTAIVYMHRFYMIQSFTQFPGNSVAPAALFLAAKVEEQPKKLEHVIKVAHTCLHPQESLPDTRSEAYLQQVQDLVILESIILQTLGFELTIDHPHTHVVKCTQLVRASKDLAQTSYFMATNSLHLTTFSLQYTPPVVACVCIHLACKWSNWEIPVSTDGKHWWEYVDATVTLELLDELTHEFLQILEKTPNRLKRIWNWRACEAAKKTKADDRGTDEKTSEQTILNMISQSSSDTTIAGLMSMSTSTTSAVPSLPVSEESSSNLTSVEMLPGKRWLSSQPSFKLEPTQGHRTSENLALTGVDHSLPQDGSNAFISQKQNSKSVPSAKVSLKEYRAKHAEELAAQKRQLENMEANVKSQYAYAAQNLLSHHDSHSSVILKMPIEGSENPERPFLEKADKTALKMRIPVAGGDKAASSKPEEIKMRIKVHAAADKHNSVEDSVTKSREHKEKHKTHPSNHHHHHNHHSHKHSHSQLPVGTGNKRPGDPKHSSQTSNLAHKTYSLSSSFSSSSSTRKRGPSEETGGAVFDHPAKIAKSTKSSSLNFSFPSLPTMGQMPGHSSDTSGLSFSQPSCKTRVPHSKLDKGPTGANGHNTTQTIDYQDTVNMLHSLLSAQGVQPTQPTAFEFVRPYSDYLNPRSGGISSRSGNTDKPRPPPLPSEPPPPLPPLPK

Take `COc1cc(F)c(F)cc1-c1ncnc(Nc2cccc(CS(C)(=N)=O)c2)n1` (racemic) [Example 10, (rac)-4-(4,5-Difluoro-2-methoxyphenyl)-N-{3-[(S-methylsulfonimidoyl)methyl]phenyl}-1,3,5-triazin-2-amine]: the pIC50 in data set [1] (Homo sapiens, HeLa) was 5.96; on CDK9/CycT1 it was 7.55; at CDK2/CycE, 5.89. In data set [2], this molecule had a solubility (thermodynamic) at 24 h of 130 µg/mL (≈ 321 µM).

With `CCCOc1cc(F)ccc1-c1ncnc(Nc2cccc(CS(C)(=N)=O)c2)n1` (racemic) [Example 91, (rac)-4-(4-Fluoro-2-propoxyphenyl)-N-{3-[(S-methylsulfonimidoyl)methyl]phenyl}-1,3,5-triazin-2-amine], the pIC50 was 5.96 in [1] (Homo sapiens, HeLa); 7.54 at CDK9/CycT1; 5.64 against CDK2/CycE. This molecule also registered a thermodynamic solubility at 24 h in data set [2] of 104 µg/mL (≈ 250 µM).

`COc1ccc(F)cc1-c1ncnc(Nc2cccc(CS(C)(=N)=O)c2)n1` (single isomer, unassigned) [Example 22, 4-(5-Fluoro-2-methoxyphenyl)-N-{3-[(S-methylsulfonimidoyl)methyl]phenyl}-1,3,5-triazin-2-amine] came in with a solubility (thermodynamic) at 24 h in data set [2] of 787 µg/mL (≈ 2030 µM). For the same molecule, the pIC50 against CDK9/CycT1 is 7.04; against CDK2/CycE it was 5.55.

For the molecule `COc1ccc(F)cc1-c1ncnc(Nc2cccc(CS(C)(=N)=O)c2)n1` (single isomer, unassigned) [Example 23, 4-(5-Fluoro-2-methoxyphenyl)-N-{3-[(S-methylsulfonimidoyl)methyl]phenyl}-1,3,5-triazin-2-amine], in data set [2], the “Thermodynamic solubility in water at pH 6.5” value (“Thermodynamic solubility” for short) was 888 mg/l. Also, the pIC50 was 6.96 on CDK9/CycT1 and 5.25 on CDK2/CycE.

`CS(=N)(=O)Cc1cccc(Nc2ncnc(-c3cccc4c3OCCC4)n2)c1` (single isomer, unassigned) [Example 31, 4-(3,4-Dihydro-2H-chromen-8-yl)-N-{3-[(S-methylsulfonimidoyl)methyl]phenyl}-1,3,5-triazin-2-amine] had a solubility (thermodynamic) at 24 h in [2] of 1000 µg/mL (≈ 2530 µM). Moreover, the pIC50 against CDK2/CycE was 6.17.

`CS(=N)(=O)Cc1cccc(Nc2ncnc(-c3cccc4c3OCCC4)n2)c1` (single isomer, unassigned) [Example 32, 4-(3,4-Dihydro-2H-chromen-8-yl)-N-{3-[(S-methylsulfonimidoyl)methyl]phenyl}-1,3,5-triazin-2-amine]: the “Thermodynamic solubility” value in data set [2] was 1000 mg/l. On CDK2/CycE, the pIC50 is 5.80.

Regarding `CS(=N)(=O)Cc1cccc(Nc2ncnc(-c3cccc4c3OCCO4)n2)c1` (single isomer, unassigned) [Example 39, 4-(2,3-Dihydro-1,4-benzodioxin-5-yl)-N-{3-[(S-methylsulfonimidoyl)methyl]phenyl}-1,3,5-triazin-2-amine], the pIC50 is 5.96 in [1] (Homo sapiens, HeLa); 7.54 against CDK9/CycT1; 5.82 against CDK2/CycE. The thermodynamic solubility at 24 h in data set [2] came out at 819 µg/mL (≈ 2060 µM).

As to `CS(=N)(=O)Cc1cccc(Nc2ncnc(-c3cccc4c3OCCO4)n2)c1` (single isomer, unassigned) [Example 40, 4-(2,3-Dihydro-1,4-benzodioxin-5-yl)-N-{3-[(S-methylsulfonimidoyl)methyl]phenyl}-1,3,5-triazin-2-amine], the pIC50 in data set [1] was 5.96; at CDK9/CycT1 it was 7.60; against CDK2/CycE, 5.74. Also, in data set [2], the “Thermodynamic solubility” value is 865 mg/l.

`COc1cc(F)ccc1-c1ncnc(Nc2cccc(CS(C)(=O)=NC#N)c2)n1` (single isomer, unassigned) [Example 49, [(3-{[4-(4-fluoro-2-methoxyphenyl)-1,3,5-triazin-2-yl]amino}benzyl)(methyl)oxido-λ^6-sulfanylidene]cyanamide] returned a solubility (thermodynamic) at 24 h in [2] of 88 µg/mL (≈ 213 µM). Moreover, the pIC50 against CDK9/CycT1 was 8.15; at CDK2/CycE it was 6.19.

Turning to `COc1cc(F)ccc1-c1ncnc(Nc2cc(F)cc(CS(C)(=N)=O)c2)n1` (single isomer, unassigned) [Example 54, 4-(4-Fluoro-2-methoxyphenyl)-N-{3-fluoro-5-[(S-methylsulfonimidoyl)methyl]phenyl}-1,3,5-triazin-2-amine], the thermodynamic solubility at 24 h in data set [2] came to 120 µg/mL (≈ 296 µM). In addition, the pIC50 against CDK2/CycE is 6.07.

Regarding `C#CCOc1cc(F)ccc1-c1ncnc(Nc2cccc(CS(C)(=N)=O)c2)n1` (single isomer, unassigned) [Example 79, 4-[4-Fluoro-2-(prop-2-yn-1-yloxy)phenyl]-N-{3-[(S-methylsulfonimidoyl)methyl]phenyl}-1,3,5-triazin-2-amine], the pIC50 was 6.36 in data set [1]; 6.42 in data set [3] (DU145 cells); 8.30 at CDK9/CycT1; 6.38 in data set [4] (NCI-H460 cells); 6.41 in data set [5] (Caco-2 cells); 6.43 in data set [6] (B16F10 cells). Further, the pIC50 in data set [7] was 6.46; against CDK2/CycE, 6.36.

`CS(=N)(=O)Cc1cccc(Nc2ncnc(-c3ccc(F)cc3OCc3ccnc(F)c3)n2)c1` (single isomer, unassigned) [Example 83, 4-{4-Fluoro-2-[(2-fluoropyridin-4-yl)methoxy]phenyl}-N-{3-[(S-methylsulfonimidoyl)methyl]phenyl}-1,3,5-triazin-2-amine]: the pIC50 in data set [1] (Homo sapiens, HeLa) was 6.96; in data set [3] (Homo sapiens, DU-145, DU145 cells) it was 6.74; against CDK9/CycT1, 8.70; in data set [4] (Homo sapiens, NCI-H460, NCI-H460 cells) it was 6.74; in [5] (Homo sapiens, Caco-2, Caco-2 cells), 6.68; in [6] (Mus musculus, B16-F10, B16F10 cells), 6.66. Further, the pIC50 in [7] (Homo sapiens, HeLa) is 6.19; against CDK2/CycE, 6.57.

For `CS(=N)(=O)Cc1cccc(Nc2ncnc(-c3ccc(F)cc3OCc3ccnc(F)c3)n2)c1` (single isomer, unassigned) [Example 84, 4-{4-Fluoro-2-[(2-fluoropyridin-4-yl)methoxy]phenyl}-N-{3-[(S-methylsulfonimidoyl)methyl]phenyl}-1,3,5-triazin-2-amine], the pIC50 in data set [1] was 6.92; in data set [3] (DU145 cells) it was 6.74; at CDK9/CycT1, 8.52; in [4] (NCI-H460 cells), 6.74; in data set [5] (Caco-2 cells) it was 6.74; in data set [6] (B16F10 cells) it was 6.68. Moreover, the pIC50 in data set [7] is 6.47; against CDK2/CycE, 6.66.

In the case of `CNC(=O)N=S(C)(=O)Cc1cccc(Nc2ncnc(-c3ccc(F)cc3OC)n2)c1` (single isomer, unassigned; (-)) [Example 16, (−)-1-[(3-{[4-(4-Fluoro-2-methoxyphenyl)-1,3,5-triazin-2-yl]amino}benzyl)(methyl)oxido-λ^6-sulfanylidene]-3-methylurea], the pIC50 was 6.02 in data set [1] (Homo sapiens, HeLa); 7.72 against CDK9/CycT1; 5.96 against CDK2/CycE. The same molecule showed a solubility (thermodynamic) at 24 h in [2] of 323 µg/mL (≈ 727 µM).

By thermodynamic solubility is commonly meant solubility found after equilibrating the solid with the medium.

The values are drawn from US9669034B2, “4-aryl-N-phenyl-1,3,5-triazin-2-amines containing a sulfoximine group” (BAYER INTELLECTUAL PROPERTY GMBH, priority 2011, dated 2017).
